Measurements from patent publication US20090137565A1, “Method for treatment of movement disorders” (The Trustees of Columbia University in the City of New York, priority 2004, published 2009).

Legend:
[1] = system: severe posthypoxic myoclonus
Text: After obtaining verbal consent from the patient and their spouse, they were given approximately six ounces of wine to drink (alcohol content 14% by volume). […] They were videotaped before and after the trial with alcohol.

[2] = system: severe posthypoxic myoclonus; experiment: Earlier trials of anti-myoclonic medications in the Example 1 patient (case history); conditions: for reason for intolerance / adverse effect: human, in vivo
Text: The patient was referred to the Columbia University Medical Center Movement Disorder Center for evaluation of severe posthypoxic myoclonus at the age of 37. […] Back-averaged EEGs and somatosensory evoked potentials were not available.

[3] = approximately six ounces of wine
[4] = Example 1 patient, before the trial

Structure (SMILES) | outcome of trials of anti-myoclonic medications [2, 4] | reason for intolerance / adverse effect [2] | also measured
CCO [alcohol] | – | – | duration of anti-myoclonic effect [1, 3]: resolved in several hours; effect on myoclonus [1, 3]: dramatic improvement in myoclonus; time to improvement in myoclonus ([1]; approximately six ounces of wine (alcohol content 14% by volume)): ≤ 30 min
CC[C@@H](C(N)=O)N1CCCC1=O [levetiracetam] | only minimally successful | – | –
CCCC(CCC)C(=O)O [valproic acid] | only minimally successful | drop in platelet count | –
O=C1CN=C(c2ccccc2Cl)c2cc([N+](=O)[O-])ccc2N1 [clonazepam] | only minimally successful | – | dose-limiting side effect [2, 4]: dose-limiting sedation; effect on severity of myoclonus [2, 4]: partially improved
CC1(C)O[C@@H]2[C@@H](CO[C@@]3(COS(N)(=O)=O)OC(C)(C)O[C@@H]23)O1 [topiramate] | only minimally successful | – | –
NS(=O)(=O)Cc1noc2ccccc12 [zonisamide] | only minimally successful | anorexia | –
